Measurements published in patent US12239643B2, “Therapeutic agent for inflammatory diseases, autoimmune diseases, fibrotic diseases, and cancer diseases” (MEIJI SEIKA PHARMA CO., LTD., priority 2018, dated 2025).

Columns and labels:
[1] = Hepatic metabolic stability (rat liver microsome method); assay type: in vitro ADME; conditions: rat liver microsomes 0.5 mg/mL, test substance 1 μM, NADPH 1 mM, 37° C., 30 minutes
Method: Metabolic stability in rat liver microsomes was evaluated by the following method. First, in 100 mM of potassium phosphate buffer solution (pH 7.4), liver microsomes (concentration at reaction: 0.5 mg/mL) and the test substance (concentration at reaction: 1 μM) were preincubated at 37° C. Five minutes later, 100 mM of potassium phosphate buffer (pH 7.4) solution of NADPH (concentration at reaction: 1 mM) was mixed thereto to start the reaction. After a predetermined time passed, acetonitrile was mixed to the reaction mixture to stop the reaction. Here, the reaction time was 0 and 30 minutes, and drug concentration measurement was performed for each time period using LC-MS. The % remaining value of the test compound was calculated from the value for 0 minutes and the value for 30 minutes, using the calculation formula below: % Remaining=(Value for 30 Minutes/Value for 0 Minutes)×100
The results of measuring the rat liver microsome metabolic Stability (% remaining for 30-minute reaction) for the test compound by the above method were evaluated in accordance with the following evaluated basis; A: a % remaining rate of 75% or more, B: 60% or more and less than 75%, C: 45% or more and less than 60%, and D: less than 45%.

[2] = test system: PDE4; assay: Evaluation of PDE4 inhibitory activity, scintillation proximity assay; assay type: biochemical; conditions: scintillation proximity assay; read-out: PDE4 Inhibitory Activity (Evaluation 1; concentration for the inhibition rate of 50%)
Method in brief: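 IC50 was derived from inhibition curves, referenced to an enzyme-free blank and a DMSO-only control. Compound, PDE4 preparation and tritiated cAMP reacted 120 min at RT in Tris-HCl buffer (pH 7.4) with MgCl2, EGTA and BSA; YSi-SPA beads with ZnSO4 bound product before scintillation counting.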

Cc1csc(-c2ccc(OC(F)(F)C(C)(C)O)c3nc(N4CC5CC(C4)N5)oc23)n1 [Example 306, 1-((2-(3,6-Diazabicyclo[3.1.1]heptan-3-yl)-7-(4-methylthiazol-2-yl)benzo[d]oxazol-4-yl)oxy)-1,1-difluoro-2-methylpropan-2-ol]
Residual ratio (% remaining for 30-minute reaction) [1]: A (A: a % remaining rate of 75% or more)
IC50 [2]: 100 to 1000 nM

OCC(F)(F)Oc1ccc(-c2ccccn2)c2oc(N3CC4CC(C3)N4)nc12 [Example 315, 2-((2-(3,6-Diazabicyclo[3.1.1]heptan-3-yl)-7-(pyridin-2-yl)benzo[d]oxazol-4-yl)oxy)-2,2-difluoroethan-1-ol]
Residual ratio (% remaining for 30-minute reaction) [1]: A (A: a % remaining rate of 75% or more)
IC50 [2]: < 100 nM

CC(C)(O)C(F)(F)Oc1ccc(-n2cccn2)c2oc(N3CC4CCC(C3)N4)nc12 [Example 316, 1-((2-(3,8-Diazabicyclo[3.2.1]octan-3-yl)-7-(1H-pyrazol-1-yl)benzo[d]oxazol-4-yl)oxy)-1,1-difluoro-2-methylpropan-2-ol]
Residual ratio (% remaining for 30-minute reaction) [1]: A (A: a % remaining rate of 75% or more)
IC50 [2]: < 100 nM

CC(C)(O)C(F)(F)Oc1ccc(-c2ccccn2)c2oc(N3CC4CCC(C3)N4)nc12 [Example 317, 1-((2-(3,8-Diazabicyclo[3.2.1]octan-3-yl)-7-(pyridin-2-yl)benzo[d]oxazol-4-yl)oxy)-1,1-difluoro-2-methylpropan-2-ol]
Residual ratio (% remaining for 30-minute reaction) [1]: A (A: a % remaining rate of 75% or more)
IC50 [2]: < 100 nM

Cc1csc(-c2ccc(OC(F)(F)C(C)(C)O)c3nc(N4CC5CCC(C4)N5)oc23)n1 [Example 318, 1-((2-(3,8-Diazabicyclo[3.2.1]octan-3-yl)-7-(4-methylthiazol-2-yl)benzo[d]oxazol-4-yl)oxy)-1,1-difluoro-2-methylpropan-2-ol]
Residual ratio (% remaining for 30-minute reaction) [1]: B (B: 60% or more and less than 75%)
IC50 [2]: < 100 nM

OCC(F)(F)Oc1ccc(-c2ccc(F)cn2)c2oc(N3CC4CC(C3)N4)nc12 [Example 319, 2-((2-(3,6-Diazabicyclo[3.1.1]heptan-3-yl)-7-(5-fluoropyridin-2-yl)benzo[d]oxazol-4-yl)oxy)-2,2-difluoroethan-1-ol]
Residual ratio (% remaining for 30-minute reaction) [1]: A (A: a % remaining rate of 75% or more)
IC50 [2]: < 100 nM

CC(C)(O)C(F)(F)Oc1ccc(-c2ncco2)c2oc(N3CC4CCC(C3)N4)nc12 [Example 321, 1-((2-(3,8-Diazabicyclo[3.2.1]octan-3-yl)-7-(oxazol-2-yl)benzo[d]oxazol-4-yl)oxy)-1,1-difluoro-2-methylpropan-2-ol]
Residual ratio (% remaining for 30-minute reaction) [1]: A (A: a % remaining rate of 75% or more)
IC50 [2]: < 100 nM

CC(C)(O)C(F)(F)Oc1ccc(-n2nccn2)c2oc(N3CC4CCC(C3)N4)nc12 [Example 322, 1-((2-(3,8-Diazabicyclo[3.2.1]octan-3-yl)-7-(2H-1,2,3-triazol-2-yl)benzo[d]oxazol-4-yl)oxy)-1,1-difluoro-2-methylpropan-2-ol]
Residual ratio (% remaining for 30-minute reaction) [1]: A (A: a % remaining rate of 75% or more)
IC50 [2]: < 100 nM

c1csc(-c2ccc(O[C@H]3CCOC3)c3nc(N4CC5CC(C4)N5)oc23)n1 [Example 323, 2-(3,6-Diazabicyclo[3.1.1]heptan-3-yl)-4-(((S)-tetrahydrofuran-3-yl)oxy)-7-(thiazol-2-yl)benzo[d]oxazole]
Residual ratio (% remaining for 30-minute reaction) [1]: B (B: 60% or more and less than 75%)
IC50 [2]: < 100 nM

c1csc(-c2ccc(O[C@@H]3CCOC3)c3nc(N4CC5CC(C4)N5)oc23)n1 [Example 324, 2-(3,6-Diazabicyclo[3.1.1]heptan-3-yl)-4-(((R)-tetrahydrofuran-3-yl)oxy)-7-(thiazol-2-yl)benzo[d]oxazole]
Residual ratio (% remaining for 30-minute reaction) [1]: A (A: a % remaining rate of 75% or more)
IC50 [2]: < 100 nM

c1csc(-c2ccc(OC3COC3)c3nc(N4CC5CC(C4)N5)oc23)n1 [Example 325, 2-(3,6-Diazabicyclo[3.1.1]heptan-3-yl)-4-(oxetan-3-yloxy)-7-(thiazol-2-yl)benzo[d]oxazole]
Residual ratio (% remaining for 30-minute reaction) [1]: A (A: a % remaining rate of 75% or more)
IC50 [2]: < 100 nM

CC(C)(O)C(F)(F)Oc1ccc(-c2ncns2)c2oc(N3CC4CCC(C3)N4)nc12 [Example 327, 1-((2-(3,8-Diazabicyclo[3.2.1]octan-3-yl)-7-(1,2,4-thiadiazol-5-yl)benzo[d]oxazol-4-yl)oxy)-1,1-difluoro-2-methylpropan-2-ol]
Residual ratio (% remaining for 30-minute reaction) [1]: B (B: 60% or more and less than 75%)
IC50 [2]: < 100 nM

Cn1ccc(-c2ccc(OC(F)(F)C(C)(C)O)c3nc(N4CC5CCC(C4)N5)oc23)n1 [Example 328, 1-((2-(3,8-Diazabicyclo[3.2.1]octan-3-yl)-7-(1-methyl-1H-pyrazol-3-yl)benzo[d]oxazol-4-yl)oxy)-1,1-difluoro-2-methylpropan-2-ol]
Residual ratio (% remaining for 30-minute reaction) [1]: A (A: a % remaining rate of 75% or more)
IC50 [2]: < 100 nM

CC(C)(O)C(F)(F)Oc1ccc(-c2ccc(F)cn2)c2oc(N3CC4CC(C3)N4)nc12 [Example 329, 1-((2-(3,6-Diazabicyclo[3.1.1]heptan-3-yl)-7-(5-fluoropyridin-2-yl)benzo[d]oxazol-4-yl)oxy)-1,1-difluoro-2-methylpropan-2-ol]
Residual ratio (% remaining for 30-minute reaction) [1]: A (A: a % remaining rate of 75% or more)
IC50 [2]: < 100 nM

CC(C)(O)C(F)(F)Oc1ccc(-c2ncccn2)c2oc(N3CC4CCC(C3)N4)nc12 [Example 330, 1-((2-(3,8-Diazabicyclo[3.2.1]octan-3-yl)-7-(pyrimidin-2-yl)benzo[d]oxazol-4-yl)oxy)-1,1-difluoro-2-methylpropan-2-ol]
Residual ratio (% remaining for 30-minute reaction) [1]: A (A: a % remaining rate of 75% or more)
IC50 [2]: < 100 nM

CC(C)(O)C(F)(F)Oc1ccc(-c2ccsn2)c2oc(N3CC4CCC(C3)N4)nc12 [Example 331, 1-((2-(3,8-Diazabicyclo[3.2.1]octan-3-yl)-7-(isothiazol-3-yl)benzo[d]oxazol-4-yl)oxy)-1,1-difluoro-2-methylpropan-2-ol]
Residual ratio (% remaining for 30-minute reaction) [1]: B (B: 60% or more and less than 75%)
IC50 [2]: < 100 nM

CC(C)(O)C(F)(F)Oc1ccc(-c2ccc(F)cn2)c2oc(N3CC4CCC(C3)N4)nc12 [Example 332, 1-((2-(3,8-Diazabicyclo[3.2.1]octan-3-yl)-7-(5-fluoropyridin-2-yl)benzo[d]oxazol-4-yl)oxy)-1,1-difluoro-2-methylpropan-2-ol]
Residual ratio (% remaining for 30-minute reaction) [1]: A (A: a % remaining rate of 75% or more)
IC50 [2]: < 100 nM

Cc1nsc(-c2ccc(OC(F)(F)C(C)(C)O)c3nc(N4CC5CCC(C4)N5)oc23)n1 [Example 333, 1-((2-(3,8-Diazabicyclo[3.2.1]octan-3-yl)-7-(3-methyl-1,2,4-thiadiazol-5-yl)benzo[d]oxazol-4-yl)oxy)-1,1-difluoro-2-methylpropan-2-ol]
Residual ratio (% remaining for 30-minute reaction) [1]: B (B: 60% or more and less than 75%)
IC50 [2]: 100 to 1000 nM

O=S(=O)(c1ccc(-c2nccs2)c2oc(N3CC4CC(C3)N4)nc12)C(F)(F)F [Example 334, 2-(3,6-Diazabicyclo[3.1.1]heptan-3-yl)-7-(thiazol-2-yl)-4-((trifluoromethyl)sulfonyl)benzo[d]oxazole]
Residual ratio (% remaining for 30-minute reaction) [1]: B (B: 60% or more and less than 75%)
IC50 [2]: < 100 nM

N#Cc1ccc(-c2nccs2)c2oc(N3CC4CC(C3)N4)nc12 [Example 335, 2-(3,6-Diazabicyclo[3.1.1]heptan-3-yl)-7-(thiazol-2-yl)benzo[d]oxazole-4-carbonitrile]
Residual ratio (% remaining for 30-minute reaction) [1]: A (A: a % remaining rate of 75% or more)
IC50 [2]: < 100 nM

FC(F)(F)c1ccc(Oc2ccc(-c3nccs3)c3oc(N4CC5CC(C4)N5)nc23)nc1 [Example 336, 2-(3,6-Diazabicyclo[3.1.1]heptan-3-yl)-7-(thiazol-2-yl)-4-((5-(trifluoromethyl)pyridin-2-yl)oxy)benzo[d]oxazole]
Residual ratio (% remaining for 30-minute reaction) [1]: B (B: 60% or more and less than 75%)
IC50 [2]: < 100 nM

c1cnc(Oc2ccc(-c3nccs3)c3oc(N4CC5CC(C4)N5)nc23)nc1 [Example 338, 2-(3,6-Diazabicyclo[3.1.1]heptan-3-yl)-4-(pyrimidin-2-yloxy)-7-(thiazol-2-yl)benzo[d]oxazole]
Residual ratio (% remaining for 30-minute reaction) [1]: A (A: a % remaining rate of 75% or more)
IC50 [2]: < 100 nM

c1cnc(Oc2ccc(-c3nccs3)c3oc(N4CC5CC(C4)N5)nc23)cn1 [Example 339, 2-(3,6-Diazabicyclo[3.1.1]heptan-3-yl)-4-(pyrazin-2-yloxy)-7-(thiazol-2-yl)benzo[d]oxazole]
Residual ratio (% remaining for 30-minute reaction) [1]: B (B: 60% or more and less than 75%)
IC50 [2]: < 100 nM

Cc1cc(C(F)(F)F)c(Oc2ccc(-c3nccs3)c3oc(N4CC5CC(C4)N5)nc23)nn1 [Example 340, 2-(3,6-Diazabicyclo[3.1.1]heptan-3-yl)-4-((6-methyl-4-(trifluoromethyl)pyridazin-3-yl)oxy)-7-(thiazol-2-yl)benzo[d]oxazole]
Residual ratio (% remaining for 30-minute reaction) [1]: A (A: a % remaining rate of 75% or more)
IC50 [2]: < 100 nM
